In US20240116946A1 (Gilead Sciences, Inc., priority 2022, published 2024):
Read-outs that look alike come from different tables or passages of the source.

Tests used:
[1] = test system: SARS-CoV-2-NLuc; test: microbe, parasite or virus in culture; format: cell-based, SARS Coronavirus 2
[2] = target: recombinant SARS-CoV-2 Main protease (Mpro) (Severe acute respiratory syndrome coronavirus 2 (2019-nCoV) (SARS-CoV-2), UniProt P0DTD1); test: Cov Mpro Biochemical IC50 Assay; conditions: read-out: MPro IC50
[3] = Severe acute respiratory syndrome coronavirus, 48 h, read-out: MPro EC50
[4] = recombinant SARS-CoV-2 Mpro, fluorogenic peptide substrate
[5] = recombinant SARS-CoV-2 Mpro 7.5 nM, fluorogenic peptide substrate 40 μM
[6] = Severe acute respiratory syndrome coronavirus, 48 h; read-out: MPro EC50

SMILES | EC50 [1, 3] | IC50 [2, 4] | IC50 [2, 5] | EC50 [1, 6]
O=c1[nH]c2cc(-c3ccccc3Cl)sc2c(=O)n1-c1cncc2c1CCC2 [Example 107] | 71.7 nM | 31.8 nM |  | 
COc1cc(-c2cc3[nH]c(=O)n(-c4cncc5sc(C(F)F)c(C)c45)c(=O)c3s2)c(Cl)cc1F [Example 1060, 6-(2-chloro-4-fluoro-5-methoxyphenyl)-3-(2-(difluoromethyl)-3-methylthieno[2,3-c]pyridin-4-yl)thieno[3,2-d]pyrimidine-2,4(1H,3H)-dione] | 28.9 nM |  | 20 nM | 
Cn1ncc2cncc(-n3c(=O)[nH]c4cc(-c5cc(F)ccc5Cl)sc4c3=O)c21 [Example 663] | 16.6 nM |  | 14.4 nM | 
Cc1cc(Cl)ncc1-c1cc2[nH]c(=O)n(-c3cncc4ccccc34)c(=O)c2s1 [Example 287] | > 922 nM | 226 nM |  | 
O=c1[nH]c2cc(-c3c(Cl)cccc3-c3ccc4c(c3)OC(F)(F)O4)ccc2c(=O)n1-c1cncc2ccccc12 [Example 357] | 68.1 nM | 373 nM |  | 
N#Cc1ccccc1-c1cc2[nH]c(=O)n(-c3cncc4ccccc34)c(=O)c2cc1F [Example 67] | 213 nM | 88.8 nM |  | 
COc1cc(-c2cc3[nH]c(=O)n(-c4cncc5ccc(=O)n(C)c45)c(=O)c3s2)c(Cl)cc1F [Example 712] | 12.4 nM |  | 6.85 nM | 
CS(=O)(=O)N1CC(Nc2ccc3cncc(-n4c(=O)[nH]c5cc(-c6ccccc6Cl)sc5c4=O)c3c2)C1 [Example 406] | 471 nM |  | 12.6 nM | 
Cc1nn(C)cc1-c1cc2[nH]c(=O)n(-c3cncc(C4CC4)c3)c(=O)c2s1 [Example 366] |  | 36800 nM |  | 32200 nM
COc1cc(-c2cc3c(s2)c(=O)n(-c2cncc4nc(C)n(C)c24)c(=O)n3CCC#N)c(C#N)cc1F [Example 855] | 498 nM |  | 19 nM | 
COc1cc(-c2cc3[nH]c(=O)n(-c4cncc5cnn(C)c45)c(=O)c3s2)c(C)cc1Cl [Example 666] |  |  | 24 nM | 55.6 nM
O=c1[nH]c2cc(-c3cc4c(cc3Cl)OCO4)sc2c(=O)n1-c1cncc2ccccc12 [Example 347] | 642 nM | 441 nM |  | 
COc1ccc(-n2cc(-c3cccc(Cl)c3-c3ccc4c(=O)n(-c5cncc6ccccc56)c(=O)[nH]c4c3)c(C)n2)cc1 [Example 283] | 94.4 nM | 240 nM |  | 
O=c1[nH]c2cc(-c3ccccc3Cl)cnc2c(=O)n1-c1cncc2ccccc12 [Example 30] | 380 nM | 17.6 nM |  | 
N#CCCn1c(=O)n(-c2cncc3ccccc23)c(=O)c2sc(-c3ccccc3Cl)cc21 [Example 818, 3-(6-(2-chlorophenyl)-3-(isoquinolin-4-yl)-2,4-dioxo-3,4-dihydrothieno[3,2-d]pyrimidin-1(2H)-yl)propanenitrile] | 6.21 nM |  | 7.61 nM | 
COc1cc(-c2ccc3c(=O)n(-c4cncc5ccccc45)c(=O)n(CC#N)c3c2)c(Cl)cc1F [Example 897] | 85.4 nM |  | 11.2 nM | 
COc1ccc(Cl)c(-c2ccc3c(=O)n(-c4cncc5c(Cl)cccc45)c(=O)[nH]c3c2)c1 [Example 593] | 5790 nM |  | 38400 nM | 
NC(=O)c1ccccc1-c1cnc2c(=O)n(-c3cncc4ccccc34)c(=O)[nH]c2c1 [Example 70] | > 50000 nM | 2680 nM |  | 
O=c1[nH]c2cc(-c3csc4ccccc34)ccc2c(=O)n1-c1cncc2ccccc12 [Example 50] | 9060 nM | 7920 nM |  | 
CC(C)c1ccccc1-c1ccc2c(=O)n(-c3cncc4ccccc34)c(=O)[nH]c2c1 [Example 52] | 3720 nM | 12800 nM |  | 

SMILES | EC50 [1, 3] | IC50 [2, 4] | IC50 [2, 5] | EC50 [1, 6]
COc1cc(-c2cc3[nH]c(=O)n(-c4cncc5nccn45)c(=O)c3s2)c(Cl)cc1F [Example 978] |  |  | 33.4 nM | 369 nM
COc1cc(-c2cc3c(s2)c(=O)n(-c2cncc(F)c2C)c(=O)n3CCC#N)c(Cl)cc1F [Example 1022, 3-[6-(2-chloro-4-fluoro-5-methoxy-phenyl)-3-(5-fluoro-4-methyl-3-pyridyl)-2,4-dioxo-thieno[3,2-d]pyrimidin-1-yl]propanenitrile] |  |  | 7.3 nM | 9.53 nM
O=c1[nH]c2cc(-c3ccc(F)cc3Cl)sc2c(=O)n1-c1cncc2ccccc12 [Example 13] | 42.4 nM | 17.1 nM |  | 
COc1cc(-c2cc3[nH]c(=O)n(-c4cncc5c(F)cccc45)c(=O)c3s2)c(Cl)cc1F [Example 1081] | 17.9 nM |  | 8.16 nM | 
COc1cc(-c2cc3[nH]c(=O)n(-c4cncc5ccccc45)c(=O)c3cc2OC)c(C#N)cc1F [Example 324, 5-fluoro-2-[3-(4-isoquinolyl)-6-methoxy-2,4-dioxo-1H-quinazolin-7-yl]-4-methoxy-benzonitrile] |  | 7.02 nM |  | 18.1 nM
COc1cc(-c2cc3c(s2)c(=O)n(-c2cncc4ccncc24)c(=O)n3CCC#N)c(Cl)cc1F [Example 923, 3-[6-(2-chloro-4-fluoro-5-methoxy-phenyl)-3-(2,6-naphthyridin-4-yl)-2,4-dioxo-thieno[3,2-d]pyrimidin-1-yl]propanenitrile] | 2 nM |  | 4.3 nM | 
Cc1ccccc1-c1ccc2c(=O)n(-c3cncc4ccccc34)c(=O)[nH]c2c1 [Example 36] | 619 nM | 388 nM |  | 
COc1ccc(C#N)c(-c2cc3[nH]c(=O)n(-c4cncc5ccc(OC)cc45)c(=O)c3cc2F)c1 [Example 429] | 11.2 nM |  | 2.83 nM | 
COc1cc(-c2cc3c(s2)c(=O)n(-c2cncc4cnn(CC(F)F)c24)c(=O)n3CCC#N)c(Cl)cc1F [Example 911] | 11.8 nM |  | 13.2 nM | 
COc1ccc(Cl)c(-c2ccc3c(=O)n(-c4cncc5ccc(N6CC(OC)C6)cc45)c(=O)[nH]c3c2)c1 [Example 408] | 108 nM |  | 42.7 nM | 
COc1cc(-c2cc3[nH]c(=O)n(-c4cncc5ccsc45)c(=O)c3s2)c(Cl)cc1F [Example 482] | 4.44 nM |  | < 2.54 nM | 
COc1cc(-c2cc3c(s2)c(=O)n(-c2cncnc2)c(=O)n3CCC#N)c(Cl)cc1F [Example 983] | 23.1 nM |  | 6.05 nM | 
COc1cc(-c2cc3c(s2)c(=O)n(-c2cncc4nc(C5CC5)n(C)c24)c(=O)n3CCC#N)c(Cl)cc1F [Example 992] | 112 nM |  | 18.3 nM | 
COc1cc(-c2cc3[nH]c(=O)n(-c4cncc5cccnc45)c(=O)c3s2)c(Cl)cc1F [Example 553, 6-(2-chloro-4-fluoro-5-methoxy-phenyl)-3-(1,6-naphthyridin-8-yl)-1H-thieno[3,2-d]pyrimidine-2,4-dione] | 12 nM |  | 7.58 nM | 
COc1cnc(Cl)c(-c2cc3[nH]c(=O)n(-c4cncc5cnn(C)c45)c(=O)c3s2)c1 [Example 668] | 123 nM |  | 23 nM | 
COc1cnc(C#N)c(-c2cc3c(s2)c(=O)n(-c2cncc4cnn(C)c24)c(=O)n3CCC#N)c1 [Example 777] | 253 nM |  | 24.6 nM | 
N#CCCn1c(=O)n(-c2cncc3ccc(F)cc23)c(=O)c2sc(-c3ccc(F)cc3Cl)cc21 [Example 948] | 12.1 nM |  | 12.5 nM | 
Cn1ncc2c(-n3c(=O)[nH]c4cc(-c5ccccc5Cl)sc4c3=O)cncc21 [Example 491] | 64.3 nM |  | 17.3 nM | 
NC(=O)c1cc(-c2cccc(Cl)c2-c2ccc3c(=O)n(-c4cncc5ccccc45)c(=O)[nH]c3c2)ccc1Cl [Example 264] | 30.2 nM | 11.1 nM |  | 
